Laboratory results as given in patent publication US7696234B2, “Histamine H3 receptor agents, preparation and therapeutic uses” (Eli Lilly and Company, priority 2004, dated 2010).

Biological target: T1, H3R membranes (human histamine 3 receptor) (Homo sapiens, UniProt Q9Y5N1)
T1 construct: expressed in transfected cells; pcDNA3.1(+) vector, G418 selection)
Experiment: [35S] GTP γ [S] Binding Assay
Format: biochemical
Details: inhibition of [35S]GTPγS binding to membranes from H3R8-expressing HEK293 cells in the presence of agonist R(−)alpha methylhistamine
Method: Membranes isolated as described in (Preparation of Histamine Receptor Subtype Membranes) were used in a [35S]GTPχS functional assay. Binding of [35S]GTPχS to membranes indicates agonist activity. Compounds of the invention of Formula I were tested for their ability to inhibit binding in the presence of agonists. Alternately, the same transfected cell lines were used for a cAMP assay wherein H3R agonists inhibited forskolin-activated synthesis of cAMP. Compounds of Formula I were tested for their ability to permit forskolin-stimulated cAMP synthesis in the presence of agonist. cDNA for the human histamine 3 receptor was cloned and expressed as described in (A. Preparation H1R membranes), above. Transfected cells were selected using G418 ([…]), grown, and tested for histamine binding by the SPA described above. For total binding, cells were assayed in a SPA reaction described above containing 50 mM Tris-HCL (assay buffer), pH 7.6, 1 mg wheat germ agglutinin SPA beads (Amersham Pharmacia Biotech, #RPNQ0001), and 1 nM (^3H)-n-alpha-methylhistamine (NEN, NET1027) (total volume per well=200 μl). Thioperimide was added to determine non-specific binding. Several clones were selected as positive for binding, and a single clone (H3R8) was used to prepare membranes for binding studies described above. […] Plates were counted in Wallac Trilux 1450 Microbeta scintillation counter for 1 minute. […]

T1 sequence (Q9Y5N1 whole entry): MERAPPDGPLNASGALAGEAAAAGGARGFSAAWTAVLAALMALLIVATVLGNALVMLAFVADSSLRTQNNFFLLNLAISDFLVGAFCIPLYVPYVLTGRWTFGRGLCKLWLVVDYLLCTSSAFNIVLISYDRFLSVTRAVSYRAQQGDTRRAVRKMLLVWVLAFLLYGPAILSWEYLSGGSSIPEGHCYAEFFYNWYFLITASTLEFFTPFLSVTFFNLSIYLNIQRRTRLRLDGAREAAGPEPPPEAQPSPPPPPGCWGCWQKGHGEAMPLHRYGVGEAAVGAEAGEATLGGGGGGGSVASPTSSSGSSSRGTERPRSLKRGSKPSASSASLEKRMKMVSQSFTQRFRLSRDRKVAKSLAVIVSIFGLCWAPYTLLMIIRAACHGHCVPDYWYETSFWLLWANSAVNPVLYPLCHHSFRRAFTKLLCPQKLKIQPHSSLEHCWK

| SMILES | Ki [nM] |
| --- | --- |
| O=C(c1ccc(OCc2cnccn2)cc1)N1CCC[C@H]1CN1CCCC1 | 4.1 |
| COc1ccc(COc2ccc(C(=O)N3CCC[C@H]3CN3CCCC3)cc2)cc1 | 19 |
